Assay results from PubChem BioAssay AID248 (DTP/NCI, 2004).
Where “and” joins values, the source holds several entries; their conditions need not be identical. Equal values may be shown once. Inconclusive results and toxic doses are left out. Rule as the data show it: active = T/C of 150% or more; inactive = T/C below 125%.

Tested on: L1210 leukemia ip in BDF1 mice, survival T/C
Experiment: NCI In Vivo Anticancer Drug Screen. Data for tumor model L1210 Leukemia (intraperitoneal) in B6D2F1 (BDF1) mice
Settings: endpoint: mean survival time, higher = longer survival
Outline: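 Tumor cells were implanted, animals were treated, and survival was followed. The result divides the treated measurement by the vehicle-control measurement.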

[1] = dose: 100.0 mg/kg/injection, schedule: Q04DX003 (ip), vehicle: saline with Tween-80
[2] = dose: 200.0 mg/kg/injection, schedule: Q04DX003 (ip), vehicle: saline with Tween-80
[3] = dose: 400.0 mg/kg/injection, schedule: Q04DX003 (ip), vehicle: saline with Tween-80
[4] = dose: 100.0 mg/kg/injection, schedule: Q01DX009 (ip), vehicle: saline
[5] = dose: 100.0 mg/kg/injection, schedule: Q04DX003 (ip), vehicle: saline
[6] = dose: 200.0 mg/kg/injection, schedule: Q01DX009 (ip), vehicle: saline
[7] = dose: 200.0 mg/kg/injection, schedule: Q04DX003 (ip), vehicle: saline
[8] = dose: 400.0 mg/kg/injection, schedule: Q04DX003 (ip), vehicle: saline
[9] = dose: 50.0 mg/kg/injection, schedule: Q01DX001 (ip), vehicle: saline
[10] = dose: 100.0 mg/kg/injection, schedule: Q01DX001 (ip), vehicle: saline
[11] = dose: 200.0 mg/kg/injection, schedule: Q01DX001 (ip), vehicle: saline
[12] = dose: 400.0 mg/kg/injection, schedule: Q01DX001 (ip), vehicle: saline
[13] = dose: 100.0 mg/kg/injection, schedule: Q01DX009 (ip), vehicle: Klucel (hydroxypropylcellulose) (HPC)
[14] = dose: 100.0 mg/kg/injection, schedule: Q04DX003 (ip), vehicle: Klucel (hydroxypropylcellulose) (HPC)
[15] = dose: 200.0 mg/kg/injection, schedule: Q01DX009 (ip), vehicle: Klucel (hydroxypropylcellulose) (HPC)
[16] = dose: 200.0 mg/kg/injection, schedule: Q04DX003 (ip), vehicle: Klucel (hydroxypropylcellulose) (HPC)
[17] = dose: 400.0 mg/kg/injection, schedule: Q01DX009 (ip), vehicle: Klucel (hydroxypropylcellulose) (HPC)
[18] = dose: 400.0 mg/kg/injection, schedule: Q04DX003 (ip), vehicle: Klucel (hydroxypropylcellulose) (HPC)
[19] = dose: 100.0 mg/kg/injection, schedule: Q01DX001 (ip), vehicle: other
[20] = dose: 200.0 mg/kg/injection, schedule: Q01DX001 (ip), vehicle: other
[21] = dose: 400.0 mg/kg/injection, schedule: Q01DX001 (ip), vehicle: other
[22] = dose: 50.0 mg/kg/injection, schedule: Q01DX009 (ip), vehicle: Klucel (hydroxypropylcellulose) (HPC)
[23] = dose: 100.0 mg/kg/injection, schedule: Q01DX001 (ip), vehicle: acetone
[24] = dose: 200.0 mg/kg/injection, schedule: Q01DX001 (ip), vehicle: acetone
[25] = dose: 400.0 mg/kg/injection, schedule: Q01DX001 (ip), vehicle: acetone
[26] = dose: 50.0 mg/kg/injection, schedule: Q01DX009 (ip), vehicle: saline
[27] = dose: 50.0 mg/kg/injection, schedule: Q04DX003 (ip), vehicle: saline

Measured: T/C

COC(=O)C1CC(OS(=O)(=O)c2ccc(C)cc2)CN1C(=O)OCc1ccccc1 (configuration not stated)
inactive: [1] 102 % of control | [2] 94 % of control | [3] 92 % of control

Clc1nn2nnnc2c2ccccc12
inactive: dose: 6.25 mg/kg/injection, schedule: Q04DX002 (ip), vehicle: Klucel (hydroxypropylcellulose) (HPC) 93 % of control | dose: 12.5 mg/kg/injection, schedule: Q04DX002 (ip), vehicle: Klucel (hydroxypropylcellulose) (HPC) 93 % of control | dose: 25.0 mg/kg/injection, schedule: Q04DX002 (ip), vehicle: Klucel (hydroxypropylcellulose) (HPC) 96 % of control | dose: 25.0 mg/kg/injection, schedule: Q04DX003 (ip), vehicle: saline with Tween-80 98 % of control | dose: 50.0 mg/kg/injection, schedule: Q04DX003 (ip), vehicle: saline with Tween-80 101 % of control | [1] 98 % of control

COc1ccc(OC)c2c1C(=O)CC2C (configuration not stated)
inactive: [4] 100 % of control | [5] 96 % of control | [6] 96 % of control | [7] 96 % of control | [8] 91 % of control

COC(=O)C1CC23C=CCN4CC(C2C)C2(c5ccccc5NC12)C43 (configuration not stated)
inactive: dose: 0.03 mg/kg/injection, schedule: Q01DX001 (ip), vehicle: saline 101 % of control | dose: 0.06 mg/kg/injection, schedule: Q01DX001 (ip), vehicle: saline 98 % of control | dose: 0.13 mg/kg/injection, schedule: Q01DX001 (ip), vehicle: saline 93 % of control | dose: 0.25 mg/kg/injection, schedule: Q01DX001 (ip), vehicle: saline 101 % of control | dose: 0.5 mg/kg/injection, schedule: Q01DX001 (ip), vehicle: saline 97 % of control | dose: 1.0 mg/kg/injection, schedule: Q01DX001 (ip), vehicle: saline 97 % of control | dose: 2.0 mg/kg/injection, schedule: Q01DX001 (ip), vehicle: saline 98 % of control | dose: 25.0 mg/kg/injection, schedule: Q01DX001 (ip), vehicle: saline 101 % of control | [9] 95 % of control | [10] 101 % of control

CCCOC(=O)NNC(=O)OCCC
inactive: dose: 75.0 mg/kg/injection, schedule: Q01DX009 (ip), vehicle: Klucel (hydroxypropylcellulose) (HPC) 93 % of control

CC(=O)N(N=O)c1cc(Cl)ccc1Cl
inactive: [9] 113 % of control | [10] 110 % of control | [11] 101 % of control | [12] 107 % of control

O=C1c2c(Cl)cccc2Cc2cccc(Cl)c21
inactive: dose: 37.5 mg/kg/injection, schedule: Q01DX001 (ip), vehicle: Klucel (hydroxypropylcellulose) (HPC) 107 % of control | dose: 75.0 mg/kg/injection, schedule: Q01DX001 (ip), vehicle: Klucel (hydroxypropylcellulose) (HPC) 102 % of control | dose: 150.0 mg/kg/injection, schedule: Q01DX001 (ip), vehicle: Klucel (hydroxypropylcellulose) (HPC) 100 % of control

NCCS(=O)CCN
inactive: [4] 100 % of control | [6] 107 % of control | dose: 400.0 mg/kg/injection, schedule: Q01DX009 (ip), vehicle: saline 94 % of control

Cc1cc2oc(/C=N/N3CCOCC3)c(C)c2cc1C
inactive: [13] 96 % of control | [14] 90 % of control | [15] 103 % of control | [16] 102 % of control | [17] 99 % of control | [18] 98 % of control

CC(O)CCc1ccc(OC(=O)c2ccccc2)cc1 (configuration not stated)
inactive: [9] 101 % of control | [10] 92 % of control | [11] 101 % of control | [12] 92 % of control

O=C(NC(Cc1cn(Cc2ccccc2)cn1)C(=O)O)OCc1ccccc1 (configuration not stated)
inactive: [14] 104 % of control | [16] 104 % of control | [18] 97 % of control

O=C(Nc1cccc(Cl)c1)Nc1cccc(Cl)c1
inactive: [13] 94 % of control | [14] 102 % of control | [15] 108 % of control | [16] 93 % of control | [17] 101 % of control | [18] 100 % of control

CO/C=C(\C)C(=O)O
inactive: [19] 102 % of control | [20] 98 % of control | [21] 93 % of control

CCNC(=O)NCc1ccc(Cl)c(Cl)c1
inactive: dose: 100.0 mg/kg/injection, schedule: Q04DX002 (ip), vehicle: Klucel (hydroxypropylcellulose) (HPC) 105 % of control | dose: 200.0 mg/kg/injection, schedule: Q04DX002 (ip), vehicle: Klucel (hydroxypropylcellulose) (HPC) 99 % of control

c1ccc2c(c1)ccc1ccc[s+]c12
inactive: [22] 95 % of control | dose: 50.0 mg/kg/injection, schedule: Q04DX003 (ip), vehicle: Klucel (hydroxypropylcellulose) (HPC) 108 % of control | [23] 103 % of control | [13] 94 % of control | [14] 104 % of control | [24] 103 % of control | [15] 97 % of control | [16] 104 % of control | [25] 106 % of control

Cc1ccc(NS(=O)(=O)c2ccccc2)cc1
inactive: dose: 100.0 mg/kg/injection, schedule: Q01DX009 (ip), vehicle: saline with Tween-80 106 % of control | [1] 104 % of control | [5] 93 % of control | dose: 200.0 mg/kg/injection, schedule: Q01DX009 (ip), vehicle: saline with Tween-80 101 % of control | [2] 100 % of control | [7] 101 % of control | dose: 400.0 mg/kg/injection, schedule: Q01DX009 (ip), vehicle: saline with Tween-80 103 % of control | [3] 104 % of control | [8] 106 % of control

CN(C)N=C1CCCC1
inactive: [26] 103 % of control | [4] 103 % of control

O=P(O)(Oc1ccccc1)c1ccccc1
inactive: [10] 107 % of control | [11] 105 % of control | [12] 100 % of control

O=C(O)CNC(=O)c1ccc(NC(=S)Nc2ccccc2)cc1
inactive: dose: 25.0 mg/kg/injection, schedule: Q01DX009 (ip), vehicle: Klucel (hydroxypropylcellulose) (HPC) 90 % of control | [22] 88 % of control | [13] 108 % of control and 91 % of control

COc1ccc2cc[n+](C)cc2c1
inactive: dose: 12.5 mg/kg/injection, schedule: Q01DX009 (ip), vehicle: saline 101 % of control | dose: 25.0 mg/kg/injection, schedule: Q01DX009 (ip), vehicle: saline 110 % of control | dose: 25.0 mg/kg/injection, schedule: Q04DX003 (ip), vehicle: saline 100 % of control | [26] 110 % of control | [27] 96 % of control

O=P(CCl)(Oc1ccc(Cl)cc1)Oc1ccc(Cl)cc1
inactive: [10] 103 % of control | [11] 95 % of control

CC1CCC2(NC1)OC1CC3C4CCC5CC(O)CCC5(C)C4CCC3(C)C1C2C (configuration not stated)
inactive: [19] 94 % of control | [20] 91 % of control | [21] 94 % of control

O=C(O)CN1C(=O)C2C3CCC(C3)C2C1=O (configuration not stated)
inactive: [1] 97 % of control | [2] 97 % of control | [3] 94 % of control

CCCC(CCC)OC(=O)C(O)c1ccccc1 (configuration not stated)
inactive: [23] 94 % of control | [24] 94 % of control | [25] 100 % of control

CC(=O)c1ccc2cc(O)ccc2c1
inactive: [27] 101 % of control | [10] 97 % of control | [5] 101 % of control | [11] 101 % of control | [7] 103 % of control | [12] 104 % of control

OCC1OC(n2c(N3CCCCC3)nc3ccccc32)C(O)C1O (configuration not stated)
inactive: [10] 102 % of control | [11] 105 % of control | [12] 105 % of control

[NH-]C(CC(N)=O)C(=O)O.[NH-]C(CC(N)=O)C(=O)O.[Zn+2] (configuration not stated)
inactive: dose: 25.0 mg/kg/injection, schedule: Q04DX002 (ip), vehicle: saline 92 % of control | dose: 50.0 mg/kg/injection, schedule: Q04DX002 (ip), vehicle: saline 116 % of control
